Experiments:
[1] = tested on: human islets; test: High glucose/palmitate induced apoptotic activity in human islets; conditions: high glucose and palmitate (HG/Pal), 25 μM neratinib, FIG. 8
Text: Freshly isolated human islets from a single donor were exposed to high glucose and palmitate (HG/Pal) to induce apoptosis.

[2] = tested on: beta cells; test: Beta cell apoptosis with increasing neratinib concentrations (FIG. 3); type: cell-based; conditions: increasing concentrations of neratinib

## CCOc1cc2ncc(C#N)c(Nc3ccc(OCc4ccccn4)c(Cl)c3)c2cc1NC(=O)/C=C/CN(C)C [neratinib]
[1]
  MST1 phosphorylation (pMST1): inhibited
  induction of cleaved caspase 3 (Cl Casp3): inhibited
[2]
  Beta cell apoptosis: decrease with exposure to increasing concentrations
